Results on one molecule are retold here after patent US20130303500A1, “COMPOUNDS AND METHODS FOR TREATING NEOPLASIA” (Medexis S.A., priority 2010, published 2013).

Holding throughout (type): cell-based
One test deals with DU145 (Prostate) cells. Nature of the test: MTT cell proliferation/viability assay, DU145. The conditions noted are these: Homo sapiens, DU-145, 72 h. The procedure:
(§1) Cell proliferation/viability was assessed by the MTT [3-(4,5-dimethylthiazol-2-yl)-2,5-diphenyltetrazolium bromide] assay, which is commercially available (Sigma, St. Louis, Mo.). Cells were cultured in 96-well plates for twenty-four hours (7-10.000 cells/well) and incubated with various concentrations of the different compounds—as indicated in the Figures—in serum-containing medium (or left untreated) for seventy-two hours. At the end of incubation, the medium was aspirated and MTT dissolved in RPMI 1640 w/o phenol red was added to each well to a final concentration of 0.25 mg/ml. After four hours incubation in the dark (37° C., 5% CO2) the supernatant was discarded. The converted dye (blue formazan crystals) was solubilized by adding 200 μl dimethylsulfoxide to each well. Absorbance was measured at 550 nm with reference at 655 nm using a spectrophotometer with the respective filters. All assays were performed in triplicate.
(§2) The effect of the different compounds on the proliferation and viability of two cancer cell lines (DU145/prostate and CAKI/renal) was tested through quantitative (4,5-dimethylthiazol-2-yl)-2,5-diphenyltetrazolium bromide (MTT) assays.

A further test relates to CAKI (Renal) cells. Kind of test: MTT cell proliferation/viability assay, CAKI. The conditions noted are these: 72 h. The procedure: as §1, §2
In another test the test system is SF268 (CNS) cells. Kind of test: Sulforhodamine B (SRB) assay, SF268. The settings on record: Homo sapiens. The protocol:
(§3) Sulforhodamine B (SRB) assays were performed according to standard National Cancer Institute Guidelines. Briefly, human tumor cells from different cancer panels were seeded into 96 well plates in […] (plating densities ranging from 5-40,000 cells/well depending on the doubling time of individual cell lines) in serum-containing media for twenty-four hours prior to the addition of the compounds to be assayed. After 24 hours, one plate of each cell line was fixed in situ with trichloroacetic acid (TCA). The fixed slides were used to determine the cell population for each cell line at the time of drug addition (Tz). Each compound to be tested was solubilized in dimethyl sulfoxide (DMSO) and the desired concentration was then added to the medium and diluted serially 1:10 to provide a total of five or ten drug concentrations plus control (in a final volume of 200 μL). The starting dose before any dilution was 100 uM for all compounds.
(§4) Following drug addition, each culture was incubated for forty-eight hours. The assay was terminated with the addition of cold TCA. The supernatant was discarded, and the plates were washed with tap water and air dried. SRB solution was then added to each well. After staining, the bound stain was solubilized and the absorbance was read on an automated plate reader at a wavelength of 515 nm.
(§5) Using the absorbance measurements [time zero, (Tz), control growth, (C), and test growth in the presence of drug at the ten concentration levels (Ti)], the percentage growth was calculated at each of the drug concentrations levels. Percentage growth inhibition was calculated as:
(§6) [(Ti−Tz)/(C−Tz)]×100 for concentrations for which Ti>/=Tz
(§7) [(Ti−Tz)/Tz]×100 for concentrations for which Ti<Tz.
(§8) Three dose response parameters were calculated for each experimental agent. Growth inhibition of 50% (GI50) was calculated from [(Ti−Tz)/(C−Tz)]×100=50, which was the drug concentration resulting in a 50% reduction in the net protein increase (as measured by SRB staining) in control cells during the drug. The drug concentration resulting in total growth inhibition (TGI) was calculated from Ti=Tz. The LC50 (concentration of drug resulting in a 50% reduction in the measured protein at the end of the drug treatment as compared to that at the beginning) indicating a net loss of cells following treatment was calculated from [(Ti−Tz)/Tz]×100=−50.
(§9) Values were calculated for each of these three parameters when the level of activity was reached; however, if the effect was not reached or was exceeded, the value for that parameter was expressed as greater or less than the maximum or minimum concentration tested.
(In general: Sulforhodamine B stains cellular protein and so reports cell mass.)

The subject of a further test is A549 (Lung) cells. Kind of test: Sulforhodamine B (SRB) assay, A549. The settings on record: Homo sapiens. The procedure: as §3, §4, §5, §6, §7, §8, §9

Broadly, the IC50 is the concentration needed to halve the response being measured. A lower IC50 goes with higher potency. Usually GI50 stands for the concentration that inhibits growth by half. On to `C[C@]12CCC(=NOC3CCNC3)CC1CCC1C2CC[C@]2(C)C(=O)C(F)CC12` (stereo partly drawn) [Compound 2, (5S,10S,13S,16R)-16a-fluoro-10,13-dimethyl-3-((S)-pyrrolidin-3-yloxyimino)-tetradecahydro-2H-cyclopenta[a]phenanthren-17(14H)-one], for which the IC50 in the test on DU145 (Prostate) cells came out at 250 nM; in the test with CAKI (Renal) cells it was 8750 nM. Also, the CC50 in the test on SF268 (CNS) cells (SF-268, 48 h, read-out: LC50) worked out at 112 nM; in the test with A549 (Lung) cells (A549, 48 h, read-out: LC50) it was 599 nM. Moreover, the GI50 came to 3 nM in the test on SF268 (CNS) cells (SF-268, SF268 CNS, SRB, 48 h) and 9 nM with A549 (Lung) cells (A549 Lung, SRB, 48 h). Also, the IC (TGI) worked out at 43 nM in the test with SF268 (CNS) cells (SF-268, SF268 CNS, SRB, 48 h) and 73 nM with A549 (Lung) cells (A549 Lung, SRB, 48 h).
